This note sets out measurements from patent US9561237B1, “Bis-(triethylphosphine)platinum(II) complexes with thiones as anti cancer agents” (KING FAHD UNIVERSITY OF PETROLEUM AND MINERALS, priority 2016, dated 2017).

Common to all, as to type: cell-based
Series [1] has as its system A549 (human lung cancer) cell line. The series can be described thus: In vitro cytotoxic activity, MTT assay, A549. Particulars: for IC50: 50, 25, 12.5 and 6.25 μM, three independent experiments, read-out: IC50 ± SEM (50% cell growth inhibition), A549; for Cytotoxic activity in words (comparison): 6.2 μM to 50 μM. The procedure:
(§1) A Pt(II) metal precursor, cisplatin, carboplatin and seven synthesized complexes (1)-(7) were evaluated for their in-vitro cytotoxic activity against HeLa (human cervical cancer), A549 (human lung cancer), MCF-7 (human breast cancer) and HTC15 (human colon cancer) cell lines.
(§2) The cells were seeded at 4×10^3 cells/well in 100 μL DMEM (Dulbecco's Modified Eagle's Medium) containing 10%. FBS (Fetal Bovine Serum) in 96-well tissue culture plate and incubated for 72 h at 37° C., 5% CO2 in air and 90% relative humidity in CO2 incubator. […] The medium of wells was discarded and 100 μL DMEM containing MTT (3-(4,5-dimethylthiazol-2-Yl)-2,5-diphenyltetrazolium bromide) (5 mg/mL) was added to the wells and incubated in CO2 incubator at 37° C. in dark for 4 h. After incubation, a purple colored formazan (artificial chromogenic dye, product of the reduction of water insoluble tetrazolium salts e.g., MMT by dehydrogenases and reductases) in the cells is produced and appeared as dark crystals in the bottom of the wells. The medium of culture was discarded from each well carefully to avoid disruption of monolayer and 100 μL of dimethylsufoxide (DMSO) was added in each well. The solution was thoroughly mixed in the wells to dissolve the formazan crystals which ultimately result into a purple solution. The absorbance of the 96-wells plate was taken at 570 nm with Labsystems Multiskan EX-Enzyme-linked immunosorbent assay (EX-ELISA) reader against a reagent blank. The IC50 values were calculated from three independent experiments by generating an equation of logarithmic trendline of percentage cell viability against concentration of compounds in Microsoft Excel.
(§3) Preliminary anti-cancer activity studies were carried out on seven synthesized Pt(II) complexes (1)-(7), Pt(II) precursor, cisplatin and carboplatin against four cancer cell lines HeLa, A549, HCT15 and MCF-7 (human cancer cell lines) and an MTT assay was used to determine their dose-dependent cytotoxicity after 72 h [U. Bierbach, T. W. Hambly, N. Farrell, Inorg.
(§4) The MTT assay was performed in three independent experiments, each in triplicate. The cancer cell lines used are HeLa (human cervical cancer), A549 (human lung cancer), MCF-7 (human breast cancer) and HCT15 (human colon cancer) cell lines.
In general terms: Tetrazolium assays rely on reduction of a dye to a coloured formazan, in cell work by metabolically active cells.

Series [2] has as its system MCF-7 (human breast cancer) cell line. Kind of series: In vitro cytotoxic activity, MTT assay, MCF-7. The following applies: for IC50: MCF7, 50, 25, 12.5 and 6.25 μM, three independent experiments, read-out: IC50 ± SEM (50% cell growth inhibition), MCF7; for Cytotoxic activity in words (comparison): MCF-7, 6.2 μM to 50 μM. The procedure: as §1, §2, §3, §4
Series [3] relates to HeLa (human cervical cancer) cell line. Kind of series: In vitro cytotoxic activity, MTT assay, HeLa. Particulars: for IC50: 50, 25, 12.5 and 6.25 μM, three independent experiments, read-out: IC50 ± SEM (50% cell growth inhibition), HeLa; for Cytotoxic activity in words (comparison): 6.2 μM to 50 μM. The procedure:
as §1, §2, §3, §4

Series [4] deals with HCT15 (human colon cancer) cell line. Kind of series: In vitro cytotoxic activity, MTT assay, HCT15. The following applies: for IC50: 50, 25, 12.5 and 6.25 μM, three independent experiments, read-out: IC50 ± SEM (50% cell growth inhibition), HCT15; for Cytotoxic activity in words (comparison): 6.2 μM to 50 μM. The procedure: as §1, §2, §3, §4

The term IC50 denotes the midpoint of a concentration-inhibition curve. `N.N.O=C([O-])C1(C(=O)[O-])CCC1.[Pt+2]` [Carboplatin, carboplatin, reference compound]: the IC50 in series [1] worked out at 71.2 ± 2.84 µM; in series [2] it was 55.6 ± 2.53 µM; in series [3], 56.5 ± 2.23 µM; in series [4] it was 63.9 ± 2.25 µM.

Turning to `N.N.[Cl][Pt][Cl]` [Cisplatin, cis-diaminedichlorido platinum(II) complex cis-[(NH3)2PtCl2], reference compound], the concentration for half-maximal inhibition (IC50) was found to be 41.7 ± 1.17 µM in series [1], 22.4 ± 1.37 µM in series [2], 19.2 ± 1.81 µM in series [3] and 29.7 ± 2.35 µM in series [4].

Regarding `CC[PH](CC)(CC)[Pt+2]([SH]=C1NCCN1)([SH]=C1NCCN1)[PH](CC)(CC)CC.[Cl-].[Cl-]` [Complex (1), cis-bis(triethylphosphine)di(imidazolidine-2-thione)platinum(II)], the IC50 in series [1] amounted to 3.5 ± 0.74 µM; in series [2], 4.67 ± 1.05 µM; in series [3], 1.4 ± 0.29 µM; in series [4], 7.03 ± 1.04 µM.

For `CC[PH](CC)(CC)[Pt+2]([SH]=C1N(C)CCN1C)([SH]=C1N(C)CCN1C)[PH](CC)(CC)CC.[Cl-].[Cl-]` [Complex (3), cis-bis(triethylphosphine)di(1,3-dimethylimidazolidine-2-thione)platinum(II)], the “Cytotoxic activity in words (comparison)” value in series [1], in series [2], in series [3] and in series [4] was “most effective against all cancer cell lines” in each case. The IC50 in series [1] stood at 2.37 ± 0.29 µM; in series [2] it was 3.77 ± 0.61 µM; in series [3] it was 1.5 ± 0.21 µM; in series [4], 4.23 ± 0.73 µM.

On to `CCN1CCN(CC)C1=[SH][Pt+2]([SH]=C1N(CC)CCN1CC)([PH](CC)(CC)CC)[PH](CC)(CC)CC.[Cl-].[Cl-]` [Complex (4), cis-bis(triethylphosphine)di(1,3-diethylimidazolidine-2-thione)platinum(II)], for which the half-inhibitory concentration (IC50) came out at 12.6 ± 1.09 µM in series [1], 13.5 ± 1.36 µM in series [2], 9.9 ± 1.65 µM in series [3] and 16.1 ± 1.13 µM in series [4].

Consider `CCN1CCCNC1=[SH][Pt+2]([SH]=C1NCCCN1CC)([PH](CC)(CC)CC)[PH](CC)(CC)CC.[Cl-].[Cl-]` [Complex (6)], for which the “Cytotoxic activity in words (comparison)” value in series [1] was “better than cisplatin and carboplatin”; in series [2], “highest activity”; in series [3] it was “better than cisplatin and carboplatin”; in series [4], “better than cisplatin and carboplatin”. Further, the 50% inhibitory concentration (IC50) in series [1] came out at 3.6 ± 0.72 µM; in series [2], 1.23 ± 0.34 µM; in series [3], 1.83 ± 0.35 µM; in series [4], 5.7 ± 0.91 µM.

With `CC[PH](CC)(CC)[Pt+2]([SH]=C1NCCCCN1)([SH]=C1NCCCCN1)[PH](CC)(CC)CC.[Cl-].[Cl-]` [Complex (7), cis-bis(triethylphosphine)di(1,3-diazepane-thione)platinum(II)], the half-inhibitory concentration (IC50) in series [1] worked out at 27.7 ± 1.48 µM; in series [2], 22.3 ± 1.35 µM; in series [3] it was 17.3 ± 1.34 µM; in series [4], 37.1 ± 1.86 µM.

Take `CCP(CC)CC.CCP(CC)CC.[Cl][Pt][Cl]` [Pt(II) precursor, cis-Bis(triethylphosphine)platinum(II)chloride, reference compound]: the 50% inhibitory concentration (IC50) was determined as 55.6 ± 2.53 µM in series [1], 59.8 ± 2.15 µM in series [2], 45.8 ± 2.33 µM in series [3] and 39.1 ± 1.98 µM in series [4].

As to “cis-bis(triethylphosphine)di(1-methylimidazolidine-2-thione)platinum(II) [Complex (2)]”, the IC50 in series [1] amounted to 3.93 ± 0.47 µM; in series [2] it was 2.63 ± 0.88 µM; in series [3], 1.83 ± 0.26 µM; in series [4], 8.6 ± 0.93 µM.

Turning to “cis-bis(triethylphosphine)di(tetrahydropyrimidine-2(1H)-thione)platinum(II) [Complex (5)]”, the IC50 is 4.5 ± 0.78 µM in series [1], 4.73 ± 0.95 µM in series [2], 2.23 ± 0.52 µM in series [3] and 6.87 ± 1.07 µM in series [4].
